Source: BigSolDB 2.1

`NC(=O)c1nc(F)cnc1O` gave a solubility (mole fraction) (in DMF, 293.15 K) of 0.0109, a solubility (mole fraction) (in DMF, 298.15 K) of 0.0116 and a solubility (mole fraction) (in DMF, 303.15 K) of 0.0128. For the same compound, the solubility (mole fraction) (in DMF, 308.15 K) was 0.0133, the solubility (mole fraction) (in DMF, 313.15 K) was 0.0156 and the solubility (mole fraction) (in DMF, 318.15 K) was 0.0183. The solubility (mole fraction) (in DMF, 323.15 K) was 0.0212, the solubility (mole fraction) (in DMF, 328.15 K) was 0.0234 and the solubility (mole fraction) (in DMF, 333.15 K) was 0.026. It also gave a solubility (mole fraction) (in acetone, 293.15 K) of 0.00417, a solubility (mole fraction) (in acetone, 298.15 K) of 0.00458 and a solubility (mole fraction) (in acetone, 303.15 K) of 0.00492. The solubility (mole fraction) (in acetone, 308.15 K) was 0.00523, the solubility (mole fraction) (in acetone, 313.15 K) was 0.00585 and the solubility (mole fraction) (in acetone, 318.15 K) was 0.00638. For the same compound, the solubility (mole fraction) (in acetone, 323.15 K) was 0.00699, the solubility (mole fraction) (in acetone, 328.15 K) was 0.00772 and the solubility (mole fraction) (in acetone, 333.15 K) was 0.00859. It also gave a solubility (mole fraction) (in acetonitrile, 293.15 K) of 0.00183, a solubility (mole fraction) (in acetonitrile, 298.15 K) of 0.00188 and a solubility (mole fraction) (in acetonitrile, 303.15 K) of 0.00193. It also gave a solubility (mole fraction) (in acetonitrile, 308.15 K) of 0.00207, a solubility (mole fraction) (in acetonitrile, 313.15 K) of 0.00226 and a solubility (mole fraction) (in acetonitrile, 318.15 K) of 0.00242. The solubility (mole fraction) (in acetonitrile, 323.15 K) was 0.00268, the solubility (mole fraction) (in acetonitrile, 328.15 K) was 0.00285 and the solubility (mole fraction) (in acetonitrile, 333.15 K) was 0.00293. The solubility (mole fraction) (in dichloromethane, 293.15 K) was 0.00231, the solubility (mole fraction) (in dichloromethane, 298.15 K) was 0.00271 and the solubility (mole fraction) (in dichloromethane, 303.15 K) was 0.00277. It also gave a solubility (mole fraction) (in dichloromethane, 308.15 K) of 0.00284, a solubility (mole fraction) (in dichloromethane, 313.15 K) of 0.00328 and a solubility (mole fraction) (in dichloromethane, 318.15 K) of 0.00359. It also gave a solubility (mole fraction) (in dichloromethane, 323.15 K) of 0.00398, a solubility (mole fraction) (in dichloromethane, 328.15 K) of 0.00462 and a solubility (mole fraction) (in dichloromethane, 333.15 K) of 0.00514. For the same compound, the solubility (mole fraction) (in ethanol, 293.15 K) was 0.00206, the solubility (mole fraction) (in ethanol, 298.15 K) was 0.00238 and the solubility (mole fraction) (in ethanol, 303.15 K) was 0.00252. The solubility (mole fraction) (in ethanol, 308.15 K) was 0.00279, the solubility (mole fraction) (in ethanol, 313.15 K) was 0.00318 and the solubility (mole fraction) (in ethanol, 318.15 K) was 0.00339. It also gave a solubility (mole fraction) (in ethanol, 323.15 K) of 0.00366, a solubility (mole fraction) (in ethanol, 328.15 K) of 0.00395 and a solubility (mole fraction) (in ethanol, 333.15 K) of 0.00458. It also gave a solubility (mole fraction) (in ethyl acetate, 293.15 K) of 0.0036, a solubility (mole fraction) (in ethyl acetate, 298.15 K) of 0.00396 and a solubility (mole fraction) (in ethyl acetate, 303.15 K) of 0.00442. The solubility (mole fraction) (in ethyl acetate, 308.15 K) was 0.00449, the solubility (mole fraction) (in ethyl acetate, 313.15 K) was 0.00497 and the solubility (mole fraction) (in ethyl acetate, 318.15 K) was 0.00525. It also gave a solubility (mole fraction) (in ethyl acetate, 323.15 K) of 0.00572, a solubility (mole fraction) (in ethyl acetate, 328.15 K) of 0.00599 and a solubility (mole fraction) (in ethyl acetate, 333.15 K) of 0.00662. The solubility (mole fraction) (in isopropanol, 293.15 K) was 0.00185, the solubility (mole fraction) (in isopropanol, 298.15 K) was 0.00196 and the solubility (mole fraction) (in isopropanol, 303.15 K) was 0.00209. For the same compound, the solubility (mole fraction) (in isopropanol, 308.15 K) was 0.00236, the solubility (mole fraction) (in isopropanol, 313.15 K) was 0.00268 and the solubility (mole fraction) (in isopropanol, 318.15 K) was 0.00284. For the same compound, the solubility (mole fraction) (in isopropanol, 323.15 K) was 0.00315, the solubility (mole fraction) (in isopropanol, 328.15 K) was 0.00318 and the solubility (mole fraction) (in isopropanol, 333.15 K) was 0.00326. The solubility (mole fraction) (in methanol, 293.15 K) was 0.00147, the solubility (mole fraction) (in methanol, 298.15 K) was 0.00152 and the solubility (mole fraction) (in methanol, 303.15 K) was 0.00156. It also gave a solubility (mole fraction) (in methanol, 308.15 K) of 0.00163, a solubility (mole fraction) (in methanol, 313.15 K) of 0.00169 and a solubility (mole fraction) (in methanol, 318.15 K) of 0.00176. The solubility (mole fraction) (in methanol, 323.15 K) was 0.00182, the solubility (mole fraction) (in methanol, 328.15 K) was 0.00195 and the solubility (mole fraction) (in methanol, 333.15 K) was 0.00199. The solubility (mole fraction) (in methyl acetate, 293.15 K) was 0.00397, the solubility (mole fraction) (in methyl acetate, 298.15 K) was 0.00408 and the solubility (mole fraction) (in methyl acetate, 303.15 K) was 0.00464. The solubility (mole fraction) (in methyl acetate, 308.15 K) was 0.00499, the solubility (mole fraction) (in methyl acetate, 313.15 K) was 0.00521 and the solubility (mole fraction) (in methyl acetate, 318.15 K) was 0.00564. For the same compound, the solubility (mole fraction) (in methyl acetate, 323.15 K) was 0.00597, the solubility (mole fraction) (in methyl acetate, 328.15 K) was 0.00624 and the solubility (mole fraction) (in methyl acetate, 333.15 K) was 0.00778. It also gave a solubility (mole fraction) (in n-butanol, 293.15 K) of 0.00263, a solubility (mole fraction) (in n-butanol, 298.15 K) of 0.00296 and a solubility (mole fraction) (in n-butanol, 303.15 K) of 0.00318. The solubility (mole fraction) (in n-butanol, 308.15 K) was 0.00346, the solubility (mole fraction) (in n-butanol, 313.15 K) was 0.00385 and the solubility (mole fraction) (in n-butanol, 318.15 K) was 0.00409. It also gave a solubility (mole fraction) (in n-butanol, 323.15 K) of 0.00463, a solubility (mole fraction) (in n-butanol, 328.15 K) of 0.00499 and a solubility (mole fraction) (in n-butanol, 333.15 K) of 0.00537. It also gave a solubility (mole fraction) (in n-butyl acetate, 293.15 K) of 0.00502, a solubility (mole fraction) (in n-butyl acetate, 298.15 K) of 0.00513 and a solubility (mole fraction) (in n-butyl acetate, 303.15 K) of 0.00582. The solubility (mole fraction) (in n-butyl acetate, 308.15 K) was 0.00641, the solubility (mole fraction) (in n-butyl acetate, 313.15 K) was 0.00681 and the solubility (mole fraction) (in n-butyl acetate, 318.15 K) was 0.00741. The solubility (mole fraction) (in n-butyl acetate, 323.15 K) was 0.00839, the solubility (mole fraction) (in n-butyl acetate, 328.15 K) was 0.00894 and the solubility (mole fraction) (in n-butyl acetate, 333.15 K) was 0.00986. For the same compound, the solubility (mole fraction) (in n-propanol, 293.15 K) was 0.00188, the solubility (mole fraction) (in n-propanol, 298.15 K) was 0.00197 and the solubility (mole fraction) (in n-propanol, 303.15 K) was 0.00225. The solubility (mole fraction) (in n-propanol, 308.15 K) was 0.00258, the solubility (mole fraction) (in n-propanol, 313.15 K) was 0.00276 and the solubility (mole fraction) (in n-propanol, 318.15 K) was 0.00299. The solubility (mole fraction) (in n-propanol, 323.15 K) was 0.00316, the solubility (mole fraction) (in n-propanol, 328.15 K) was 0.00349 and the solubility (mole fraction) (in n-propanol, 333.15 K) was 0.00395.
